According to the NIST ThermoML archive (doi:10.1016/j.tca.2013.11.010):

Assays:
[1] = relative permittivity at various frequencies (dimensionless); conditions: 101.3 kPa, Liquid, Frequency=2 MHz, Parallel plate capacitor
[2] = for surface tension liquid-gas: Drop volume; for viscosity / speed of sound / mass density: 101.33 kPa; for viscosity / speed of sound / mass density / vapor or sublimation pressure: Liquid; for viscosity: Capillary tube (Ostwald / Ubbelohde) method; for speed of sound: Sing-around technique in a fixed-path interferometer; for mass density: Vibrating tube method; for vapor or sublimation pressure: Ebulliometric method (Recirculating still)
[3] = refractive index (Na D-line) (dimensionless); conditions: 101.33 kPa, Liquid, Standard Abbe refractometry

CCCCOC(=O)C(C)O (centres undefined) [butyl 2-hydroxypropanoate]
Conditions | mass density, [2] [kg/m3] | refractive index, [3] | relative permittivity, [1] | speed of sound, [2] [m/s] | surface tension liquid-gas, [2] [mN/m] | vapor or sublimation pressure, [2] [kPa] | viscosity, [2] [mPa·s]
278.15 K | 996.896 | – | 11.488 | 1357.2 | 30.07 | – | 6.496
280.65 K | 994.466 | – | 11.323 | 1348.2 | 29.86 | – | 5.873
283.15 K | 992.023 | 1.42578 | 11.164 | 1339.1 | 29.65 | – | 5.333
285.65 K | 989.578 | 1.42472 | 11.046 | 1330.1 | 29.42 | – | 4.86
288.15 K | 987.126 | 1.4237 | 10.912 | 1321.2 | 29.14 | – | 4.446
290.65 K | 984.671 | 1.42259 | 10.769 | 1312.2 | 28.93 | – | 4.077
293.15 K | 982.212 | 1.4215 | 10.593 | 1303.2 | 28.72 | – | 3.753
295.65 K | 979.75 | 1.42038 | 10.428 | 1294.1 | 28.38 | – | 3.466
298.15 K | 977.283 | 1.41928 | 10.298 | 1285 | 28.15 | – | 3.207
300.65 K | 974.813 | 1.41815 | 10.158 | 1276 | 27.87 | – | 2.978
303.15 K | 972.337 | 1.41703 | 10.024 | 1266.9 | 27.64 | 0.102 | 2.773
305.65 K | 969.859 | 1.4159 | 9.87 | 1257.8 | 27.38 | – | 2.588
308.15 K | 967.374 | 1.41477 | 9.695 | 1248.8 | 27.16 | 0.149 | 2.423
310.65 K | 964.888 | 1.41366 | 9.583 | 1239.8 | 26.92 | – | 2.272
313.15 K | 962.397 | 1.41252 | 9.411 | 1230.8 | 26.68 | 0.201 | 2.134
315.65 K | 959.903 | 1.41139 | 9.273 | 1221.7 | 26.42 | – | 2.011
318.15 K | 957.407 | 1.41026 | 9.165 | 1212.8 | 26.1 | 0.273 | 1.897
320.65 K | 954.908 | 1.4091 | 9.002 | 1203.8 | 25.89 | – | 1.793
323.15 K | 952.408 | 1.40797 | 8.844 | 1194.9 | 25.7 | 0.371 | 1.695
325.65 K | 949.904 | 1.40682 | 8.699 | 1185.9 | 25.43 | – | 1.607
328.15 K | 947.397 | 1.40572 | 8.545 | 1177 | 25.14 | 0.511 | 1.526
330.65 K | 944.885 | 1.40441 | 8.418 | 1168 | 24.92 | – | 1.45
333.15 K | 942.369 | 1.40341 | 8.286 | 1159.1 | 24.67 | 0.679 | 1.379
335.65 K | 939.848 | 1.40226 | 8.164 | 1150.3 | 24.41 | – | 1.315
338.15 K | 937.324 | 1.40114 | 8.047 | 1141.5 | 24.16 | 0.899 | 1.257
343.15 K | – | – | – | – | – | 1.192 | –
348.15 K | – | – | – | – | – | 1.541 | –
353.15 K | – | – | – | – | – | 1.979 | –
358.15 K | – | – | – | – | – | 2.502 | –
363.15 K | – | – | – | – | – | 3.224 | –
368.15 K | – | – | – | – | – | 4.057 | –
373.15 K | – | – | – | – | – | 5.075 | –
378.15 K | – | – | – | – | – | 6.271 | –
383.15 K | – | – | – | – | – | 7.753 | –
388.15 K | – | – | – | – | – | 9.531 | –
393.15 K | – | – | – | – | – | 11.64 | –
398.15 K | – | – | – | – | – | 14.12 | –
403.15 K | – | – | – | – | – | 17 | –
408.15 K | – | – | – | – | – | 20.43 | –
413.15 K | – | – | – | – | – | 24.39 | –
418.15 K | – | – | – | – | – | 29.2 | –
423.15 K | – | – | – | – | – | 34.6 | –
428.15 K | – | – | – | – | – | 40.78 | –
433.15 K | – | – | – | – | – | 47.9 | –
438.15 K | – | – | – | – | – | 55.97 | –
443.15 K | – | – | – | – | – | 65.3 | –
448.15 K | – | – | – | – | – | 75.81 | –
453.15 K | – | – | – | – | – | 87.7 | –
